Laboratory results from US12655116B2, “Substituted isophthalic acid diamides” (Bayer Aktiengesellschaft, priority 2020, dated 2026).

How the values were obtained:
ABUTH [1] = experiment: Pre-emergence herbicidal action against ABUTH; assay type: in vivo, Abutilon theophrasti
How it was run: (§1)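 Visual rating at 3 weeks vs untreated pots; 0–100% scale, 100% = plants died. Treatment: aqueous WP/EC spray onto covering soil, 600–800 l/ha, 0.2% wetter, seeds in sandy loam.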

AMARE [2] = experiment: Pre-emergence herbicidal action against AMARE; assay type: in vivo, Amaranthus retroflexus
How it was run: as §1

AVEFA [3] = experiment: Pre-emergence herbicidal action against AVEFA; assay type: in vivo, Avena fatua
How it was run: as §1

ECHCG [4] = experiment: Pre-emergence herbicidal action against ECHCG; assay type: in vivo, Echinochloa crus-galli
How it was run: as §1

MATIN [5] = experiment: Pre-emergence herbicidal action against MATIN; assay type: in vivo, Matricaria inodora
How it was run: as §1

SETVI [6] = experiment: Pre-emergence herbicidal action against SETVI; assay type: in vivo, Setaria viridis; conditions: dosage 80 g/ha
How it was run: as §1

VERPE [7] = experiment: Pre-emergence herbicidal action against VERPE; assay type: in vivo, Veronica persica; conditions: dosage 80 g/ha
How it was run: as §1

VIOTR [8] = experiment: Pre-emergence herbicidal action against VIOTR; assay type: in vivo, Viola tricolor
How it was run: as §1

ABUTH [9] = experiment: Post-emergence herbicidal action against ABUTH; assay type: in vivo, Abutilon theophrasti; conditions: dosage 20 g/ha, visual assessment about 3 weeks after treatment vs untreated controls
How it was run: (§2)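 Greenhouse pot plants in sandy loam were sprayed at the one-leaf stage, 2 to 3 weeks after sowing, with WP or EC formulations as aqueous suspension or emulsion (600 to 800 l/ha water, 0.2% wetting agent). About 3 weeks later, damage was scored visually against untreated controls as % action (100% = dead, 0% = like control).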

AMARE [10] = experiment: Post-emergence herbicidal action against AMARE; assay type: in vivo, Amaranthus retroflexus; conditions: 20 g/ha, visual assessment about 3 weeks after treatment, 100% = plants have died, 0% = like control plants
How it was run: as §2

AVEFA [11] = experiment: Post-emergence herbicidal action against AVEFA; assay type: in vivo, Avena fatua; conditions: 20 g/ha, visual assessment about 3 weeks after treatment, 100% = plants have died, 0% = like control plants
Procedure: Seeds of monocotyledonous and dicotyledonous weed and crop plants are laid out in sandy loam soil in wood-fiber pots, covered with soil and cultivated in a greenhouse under good growth conditions. 2 to 3 weeks after sowing, the test plants are treated at the one-leaf stage. The compounds of the invention, formulated in the form of wettable powders (WP) or as emulsion concentrates (EC), are then sprayed onto the green parts of the plants in the form of an aqueous suspension or emulsion at a water application rate equivalent to 600 to 800 l/ha, with addition of 0.2% wetting agent. After the test plants have been left to stand in the greenhouse under optimal growth conditions for about 3 weeks, the action of the preparations is assessed visually in comparison to untreated controls (herbicidal action in percent (%): 100% activity=the plants have died, 0% activity=like control plants). […] The tables below illustrate, in an illustrative manner, the post-emergence herbicidal action of the compounds of the invention, the herbicidal activity being stated in percent.

ECHCG [12] = experiment: Post-emergence herbicidal action against ECHCG; assay type: in vivo, Echinochloa crus-galli; conditions: dosage 20 g/ha
How it was run: as §2

MATIN [13] = experiment: Post-emergence herbicidal action against MATIN; assay type: in vivo, Matricaria inodora; conditions: dosage 20 g/ha
How it was run: as §2

VIOTR [14] = experiment: Post-emergence herbicidal action against VIOTR; assay type: in vivo, Viola tricolor
How it was run: as §2

POLCO = experiment: Pre-emergence herbicidal action against POLCO; assay type: in vivo, Polygonum convolvulus; conditions: dosage 80 g/ha
How it was run: as §1

STEME = experiment: Pre-emergence herbicidal action against STEME; assay type: in vivo, Stellaria media; conditions: dosage 80 g/ha
Source text: Seeds of monocotyledonous and dicotyledonous weed plants and crop plants are laid out in sandy loam soil in wood-fiber pots and covered with soil. The compounds of the invention, formulated in the form of wettable powders (WP) or as emulsion concentrates (EC), are then applied to the surface of the covering soil in the form of an aqueous suspension or emulsion at a water application rate equivalent to 600 to 800 l/ha, with addition of 0.2% wetting agent. After the treatment, the pots are placed in a greenhouse and kept under good growth conditions for the trial plants. The damage to the test plants is scored visually after a test period of 3 weeks by comparison with untreated controls (herbicidal activity in percent (%): 100% activity=the plants have died, 0% activity=like control plants). […] The tables below illustrate, in an illustrative manner, the post-emergence herbicidal action of the compounds of the invention, the herbicidal activity being stated in percent.

DIGSA = experiment: Pre-emergence herbicidal action against DIGSA; assay type: in vivo, Digitaria sanguinalis
How it was run: as §1

VERPE [15] = experiment: Post-emergence herbicidal action against VERPE; assay type: in vivo, Veronica persica; conditions: 20 g/ha
How it was run: as §2

ALOMY [16] = experiment: Pre-emergence herbicidal action against ALOMY; assay type: in vivo, Alopecurus myosuroides; conditions: Alopecurus myosuroides, 504 h; 80 g/ha, pre-emergence, scored visually after 3 weeks vs untreated controls (100% = plants have died, 0% = like control plants)
How it was run: as §1

ALOMY [17] = experiment: Post-emergence herbicidal action against ALOMY; assay type: in vivo, Alopecurus myosuroides; conditions: Alopecurus myosuroides, 504 h, dosage 20 g/ha, visual assessment about 3 weeks after treatment vs untreated controls
How it was run: as §2

SETVI [18] = experiment: Post-emergence herbicidal action against SETVI; assay type: in vivo, Setaria viridis; conditions: Setaria viridis, 504 h
How it was run: as §2

[19] = 80 g/ha, scored visually after 3 weeks vs untreated controls (100% = plants have died, 0% = like control plants)
[20] = 20 g/ha, scored visually after 3 weeks vs untreated controls, 100% = plants have died, 0% = like control plants

With CCn1nnnc1NC(=O)c1ccc(C(F)F)c(C(=O)NCC2CC2)c1SC [Example 2-90] the “Pre-emergence action against ABUTH (herbicidal activity)” value (ABUTH [1]; [19]) was 100%, the “Pre-emergence action against ABUTH (herbicidal activity in percent)” value (ABUTH [1]; dosage 20 g/ha, scored visually after 3 weeks vs untreated controls, 100% = plants have died, 0% = like control plants) was 100% and the “Pre-emergence action against AMARE in %” value (AMARE [2]; [20]) was 100%. For the same molecule, the “Pre-emergence action against AMARE in %” value (AMARE [2]; [19]) was 100%, the “Pre-emergence action against AVEFA” value (AVEFA [3]; 20 g/ha, scored visually after 3 weeks, 100% = plants have died, 0% = like control plants) was 80% and the “Pre-emergence action against AVEFA in %” value (AVEFA [3]; 80 g/ha, pre-emergence) was 90%. For the same molecule, the “Pre-emergence action against ECHCG in %” value (ECHCG [4]; 20 g/ha) was 90%, the “Pre-emergence action against ECHCG in %” value (ECHCG [4]; 80 g/ha) was 100% and the “Pre-emergence action against MATIN in %” value (MATIN [5]; dosage 20 g/ha) was 100%. The “Pre-emergence action against MATIN in %” value (MATIN [5]; dosage 80 g/ha) was 100%, the “Pre-emergence action against SETVI in %” value (SETVI [6]) was 100% and the “Pre-emergence action against VERPE in %” value (VERPE [7]) was 90%. For the same molecule, the “Pre-emergence action against VIOTR in %” value (VIOTR [8]; dosage 20 g/ha) was 80%, the “Pre-emergence action against VIOTR in %” value (VIOTR [8]; dosage 80 g/ha) was 100% and the “Post-emergence action against ABUTH in %” value (ABUTH [9]) was 90%. The “Post-emergence action at 20 g/ha against AMARE in %” value (AMARE [10]) was 100%, the “Post-emergence action at 20 g/ha against AVEFA in %” value (AVEFA [11]) was 80% and the “Post-emergence action against ECHCG in %” value (ECHCG [12]) was 100%. The “Post-emergence action against MATIN in %” value (MATIN [13]) was 90%, the “Post-emergence action against VIOTR in %” value (VIOTR [14]; 5 g/ha) was 100% and the “Post-emergence action against VIOTR in %” value (VIOTR [14]; 20 g/ha) was 100%.
With CCn1nnnc1NC(=O)c1ccc(S(C)(=O)=O)c(C(=O)NC)c1Cl [Example 2-123] the “Pre-emergence action against ABUTH (herbicidal activity)” value (ABUTH [1]; [19]) was 100%, the “Pre-emergence action against AMARE in %” value (AMARE [2]; [20]) was 80% and the “Pre-emergence action against AMARE in %” value (AMARE [2]; [19]) was 100%. For the same molecule, the “Pre-emergence action against MATIN in %” value (MATIN [5]; dosage 20 g/ha) was 80%, the “Pre-emergence action against MATIN in %” value (MATIN [5]; dosage 80 g/ha) was 100% and the “Pre-emergence action against POLCO in %” value (POLCO) was 80%. For the same molecule, the “Pre-emergence action against STEME in %” value (STEME) was 80%, the “Pre-emergence action against VIOTR in %” value (VIOTR [8]; dosage 80 g/ha) was 80% and the “Pre-emergence action against DIGSA in %” value (DIGSA; dosage 20 g/ha) was 80%. The “Pre-emergence action against DIGSA in %” value (DIGSA; dosage 80 g/ha) was 90%, the “Post-emergence action at 20 g/ha against AMARE in %” value (AMARE [10]) was 80% and the “Post-emergence action against VERPE in %” value (VERPE [15]) was 80%.
Work on CCn1nnnc1NC(=O)c1ccc(Cl)c(C(=O)NC2CC2)c1Br [Example 2-349] yielded a pest or weed control at 80 g/ha (ABUTH [1]; Abutilon theophrasti, 504 h, 80 g/ha, scored visually after 3 weeks vs untreated controls (100% = plants have died, 0% = like control plants)) of 100%, a pest or weed control at 80 g/ha (ALOMY [16]) of 100% and a pest or weed control at 20 g/ha (AMARE [2]; Amaranthus retroflexus, 504 h, 20 g/ha, scored visually after 3 weeks vs untreated controls, 100% = plants have died, 0% = like control plants) of 100%. It also gave a pest or weed control at 80 g/ha (AMARE [2]; Amaranthus retroflexus, 504 h, 80 g/ha, scored visually after 3 weeks vs untreated controls, 100% = plants have died, 0% = like control plants) of 100%, a pest or weed control at 80 g/ha (AVEFA [3]; Avena fatua, 504 h, 80 g/ha, pre-emergence) of 100% and a pest or weed control at 20 g/ha (AVEFA [3]; Avena fatua, pre-emergence, 504 h, 20 g/ha, scored visually after 3 weeks, 100% = plants have died, 0% = like control plants) of 90%. It also gave a pest or weed control at 80 g/ha (ECHCG [4]; Echinochloa crus-galli, 504 h, 80 g/ha) of 90%, a pest or weed control at 20 g/ha (MATIN [5]; Tripleurospermum inodorum, 504 h, dosage 20 g/ha) of 90% and a pest or weed control at 80 g/ha (MATIN [5]; Tripleurospermum inodorum, 504 h, dosage 80 g/ha) of 100%. For the same molecule, the pest or weed control at 80 g/ha (SETVI [6]; Setaria viridis, 504 h) was 100%, the pest or weed control at 80 g/ha (VERPE [7]; Veronica persica, 504 h) was 80% and the pest or weed control at 20 g/ha (VIOTR [8]; Viola tricolor, 504 h, dosage 20 g/ha) was 90%. The pest or weed control at 80 g/ha (VIOTR [8]; Viola tricolor, 504 h, dosage 80 g/ha) was 100%, the pest or weed control at 20 g/ha (ABUTH [9]; Abutilon theophrasti, 504 h) was 80% and the pest or weed control at 20 g/ha (ALOMY [17]) was 80%. It also gave a pest or weed control at 20 g/ha (AMARE [10]; Amaranthus retroflexus, 504 h) of 100%, a pest or weed control at 20 g/ha (AVEFA [11]; Avena fatua, 504 h) of 90% and a pest or weed control at 5 g/ha (SETVI [18]; dosage 5 g/ha) of 90%. It also gave a pest or weed control at 20 g/ha (SETVI [18]; dosage 20 g/ha) of 100% and a pest or weed control at 20 g/ha (VIOTR [14]; Viola tricolor, 504 h, 20 g/ha) of 80%.
